Measured values published in patent US20230121313A1 (priority 2019, published 2023).

System: subjects with MDD at imminent risk for suicide
Assay: MADRS suicide item, Study […]2001
Assay type: in vivo, human
Details: 84 mg
Text: • a. Changes from baseline to Day 2 and Day 25 for the MADRS total score • b. Changes from baseline to Day 1 4-hours postdose, Day 2 and Day 25 for the MADRS Suicide Item • c. Changes from baseline to Day 1 4-hours postdose, Day 2, and Day 25 for the clinical global judgment of suicide risk from the Suicide Ideation and Behavior Assessment Tool (SIBAT) • d. Sustained response (Onset of Clinical Response) defined as at least 50% reduction from baseline in MADRS total score with onset on Day 1 that is maintained through the end of the double-blind phase (Day 25) • e. Changes from baseline to Day 1 4-hours postdose, Day 2, and Day 25 for the Beck Scale for Suicidal Ideation (BSS) • f. Changes from baseline to Day 1 4-hours postdose and Day 25 for the Beck Hopelessness Scale
Results of the change from baseline over time for the suicide item from the MADRS assessment can be found in Attachment 1.

For CN[C@]1(c2ccccc2Cl)CCCCC1=O [esketamine, (S)-2-(2-chlorophenyl)-2-(methylamino)cyclohexanone], the “MADRS suicide item (Suicidal Thoughts), Med” value (Day 1 (DB): 4 H, LOCF, N 35) was 2.0, the “MADRS suicide item, change from baseline, Med” value (shortened to “MADRS suicide item, change”) (Day 1 (DB): 4 H, LOCF, N 35) was −3.0 and the “MADRS suicide item (Suicidal Thoughts), Med” value (Day 1(DB): 4 H, N 35) was 2.0. For the same compound, the “MADRS suicide item, change” value (Day 1(DB): 4 H, N 35) was −3.0, the “MADRS suicide item (Suicidal Thoughts), Med” value (Day 2(DB) LOCF, N 35) was 2.0 and the “MADRS suicide item, change” value (Day 2(DB) LOCF, N 35) was −3.0. For the same compound, the “MADRS suicide item (Suicidal Thoughts), Med” value (Day 2(DB), N 35) was 2.0, the “MADRS suicide item, change” value (Day 2(DB), N 35) was −3.0 and the “MADRS suicide item (Suicidal Thoughts), Med” value (Day 3(DB) LOCF, N 35) was 2.0. For the same compound, the “MADRS suicide item, change” value (Day 3(DB) LOCF, N 35) was −4.0, the “MADRS suicide item (Suicidal Thoughts), Med” value (Day 3(DB), N 32) was 2.0 and the “MADRS suicide item, change” value (Day 3(DB), N 32) was −4.0. For the same compound, the “MADRS suicide item (Suicidal Thoughts), Med” value (Day 4(DB) LOCF, N 35) was 1.0, the “MADRS suicide item, change” value (Day 4(DB) LOCF, N 35) was −4.0 and the “MADRS suicide item (Suicidal Thoughts), Med” value (Day 4(DB), N 24) was 1.0. The “MADRS suicide item, change” value (Day 4(DB), N 24) was −4.0, the “MADRS suicide item (Suicidal Thoughts), Med” value (Day 5(DB) LOCF, N 35) was 1.0 and the “MADRS suicide item, change” value (Day 5(DB) LOCF, N 35) was −4.0. For the same compound, the “MADRS suicide item (Suicidal Thoughts), Med” value (Day 5(DB), N 21) was 0.0, the “MADRS suicide item, change” value (Day 5(DB), N 21) was −4.0 and the “MADRS suicide item (Suicidal Thoughts), Med” value (Day 8(DB) LOCF, N 35) was 1.0. For the same compound, the “MADRS suicide item, change” value (Day 8(DB) LOCF, N 35) was −4.0, the “MADRS suicide item (Suicidal Thoughts), Med” value (Day 8(DB), N 31) was 1.0 and the “MADRS suicide item, change” value (Day 8(DB), N 31) was −4.0. For the same compound, the “MADRS suicide item (Suicidal Thoughts), Med” value (Day 11(DB) LOCF, N 35) was 1.0, the “MADRS suicide item, change” value (Day 11(DB) LOCF, N 35) was −4.0 and the “MADRS suicide item (Suicidal Thoughts), Med” value (Day 11(DB), N 25) was 0.0. The “MADRS suicide item, change” value (Day 11(DB), N 25) was −4.0, the “MADRS suicide item (Suicidal Thoughts), Med” value (Day 15(DB) LOCF, N 35) was 1.0 and the “MADRS suicide item, change” value (Day 15(DB) LOCF, N 35) was −4.0. The “MADRS suicide item (Suicidal Thoughts), Med” value (Day 15(DB), N 29) was 1.0, the “MADRS suicide item, change” value (Day 15(DB), N 29) was −4.0 and the “MADRS suicide item (Suicidal Thoughts), Med” value (Day 18(DB) LOCF, N 35) was 1.0. The “MADRS suicide item, change” value (Day 18(DB) LOCF, N 35) was −4.0, the “MADRS suicide item (Suicidal Thoughts), Med” value (Day 18(DB), N 23) was 1.0 and the “MADRS suicide item, change” value (Day 18(DB), N 23) was −4.0. For the same compound, the “MADRS suicide item (Suicidal Thoughts), Med” value (Day 22(DB) LOCF, N 35) was 0.0, the “MADRS suicide item, change” value (Day 22(DB) LOCF, N 35) was −4.0 and the “MADRS suicide item (Suicidal Thoughts), Med” value (Day 22(DB), N 28) was 0.0. The “MADRS suicide item, change” value (Day 22(DB), N 28) was −4.0, the “MADRS suicide item (Suicidal Thoughts), Med” value (Day 25(DB): 4 H, N 24) was 0.0 and the “MADRS suicide item, change” value (Day 25(DB): 4 H, N 24) was −4.5. The “MADRS suicide item (Suicidal Thoughts), Med” value (Day 25(DB): Predose LOCF, N 35) was 0.0, the “MADRS suicide item, change” value (Day 25(DB): Predose LOCF, N 35) was −4.0 and the “MADRS suicide item (Suicidal Thoughts), Med” value (Day 25(DB): Predose, N 24) was 0.0. The “MADRS suicide item, change” value (Day 25(DB): Predose, N 24) was −4.5, the “MADRS suicide item (Suicidal Thoughts), Med” value (Day 32(FU) LOCF, N 26) was 0.0 and the “MADRS suicide item, change” value (Day 32(FU) LOCF, N 26) was −4.0. For the same compound, the “MADRS suicide item (Suicidal Thoughts), Med” value (Day 32(FU), N 26) was 0.0, the “MADRS suicide item, change” value (Day 32(FU), N 26) was −4.0 and the “MADRS suicide item (Suicidal Thoughts), Med” value (Day 39(FU) LOCF, N 27) was 0.0. The “MADRS suicide item, change” value (Day 39(FU) LOCF, N 27) was −5.0 and the “MADRS suicide item (Suicidal Thoughts), Med” value (Day 39(FU), N 26) was 0.0.
